Experiments:
Assay type in all cases: biochemical
Sulf-2 = target: T1, Sulf-2 (Homo sapiens, UniProt Q8IWU5); test: Inhibition of Sulf-2-catalysed desulfation of 4-MUS to fluorescent MU; details: for inhibition at 1000 µM: 1 mM compound, 4-MUS substrate, means of two or more determinations, read-out: Sulf-2% inh @ 1 mM; for IC50: non-linear regression, 7 inhibitor concentrations in duplicate, mean ± SEM
T1 construct: host or cells: 293T cells, transiently transfected
Description: (§1) Compounds were assayed for their ability to inhibit the Sulf-2-catalysed desulfation of 4-methylumbelliferyl sulfate (4-MUS) to the fluorescent 4-methylumbelliferone (MU). To determine their sulfatase selectivity, inhibition of aryl sulfatases A (ARSA) and B (ARSB) was also assessed. To date no suitable benchmark inhibitors of these sulfatase have been reported. […] In the majority of cases the presence of a substituent on the B-ring was detrimental to Sulf-2 inhibition when compared with unsubstituted biphenyl sulfamate 76. Aminosulfates 54 and 62 and carboxylic acid 15 retained potency. […] Compounds 8, 10, 15, 50 and 51 were also relatively potent ARSA inhibitors. […] Aminosulfates 56 and 63 were the best Sulf-2 inhibitors lacking a trichloroethylsulfamate group.
1 – Biological assay protocols
Compounds were screened using 4-MUS as a substrate for Sulf-2 according to a protocol described by Morimoto-Tomita et al.1 Briefly 293T cells were transiently transfected with pcDNA3.1/Myc-His(-)-HSulf-2 DNA (Addgene) and TransIT-LT1 Transfection Reagent (Mirus) using a transfection mixture at the ratio 1:3 (µg DNA:
µL transfection reagent) in Opti-MEM I reduced serum medium (Gibco). Conditioned medium containing Sulf-2 was collected after 3 days and bound to HIS-Select Nickel affinity gel (Sigma) overnight at 4 °C. Beads were washed three times with washing buffer containing 50 mM HEPES (pH 7.5), 300 mM NaCl, 0.05% Tween 20, followed by washing once with washing buffer containing no tween. Beads were suspended in 50 mM Hepes (pH 7.5) and used in inhibition assays. 20 μL of bead slurry was incubated with 1 mM compound (in DMSO) plus 10X reaction buffer (500 mM HEPES pH 7.5, 100 mM CaCl2) for 1 h at 37 °C. The reaction was started by the addition of 20 μL of 20 mM 4-MUS (final concentration of 8 mM) and incubated at 37 °C for 1 h. The reaction was stopped with 100 μL 1 M Tris buffer (pH 10.4) and read at 460 nm following excitation at 355 nm in FLUOstar Omega plate reader (BMG Labtech) using Omega data analysis software. […]

aryl sulfatase A (ARSA) = target: T2, aryl sulfatase A (ARSA) (Homo sapiens, UniProt P15289); test: ARSA inhibition assay with 4-MUS substrate; details: for inhibition at 1000 µM: 1 mM compound, 4-MUS substrate, means of two or more determinations, read-out: ARSA% inh @ 1 mM
T2 construct: purchased R & D Systems
T2 sequence (P15289 19-507): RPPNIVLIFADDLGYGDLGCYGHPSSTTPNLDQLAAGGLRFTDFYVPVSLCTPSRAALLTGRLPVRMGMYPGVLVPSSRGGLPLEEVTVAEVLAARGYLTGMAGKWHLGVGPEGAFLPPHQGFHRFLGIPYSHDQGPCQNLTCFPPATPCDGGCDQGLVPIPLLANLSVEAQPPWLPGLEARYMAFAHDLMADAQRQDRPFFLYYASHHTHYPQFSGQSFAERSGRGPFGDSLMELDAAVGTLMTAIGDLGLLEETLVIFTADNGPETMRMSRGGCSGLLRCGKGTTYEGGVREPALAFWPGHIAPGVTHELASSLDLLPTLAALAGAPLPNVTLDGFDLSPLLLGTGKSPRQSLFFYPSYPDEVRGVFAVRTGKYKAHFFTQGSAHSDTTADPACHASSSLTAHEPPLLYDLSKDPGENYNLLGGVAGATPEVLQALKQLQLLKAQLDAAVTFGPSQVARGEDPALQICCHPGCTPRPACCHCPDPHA
Description: as §1
(§2) 1 – Biological assay protocols […]
(§3) Omega data analysis software.
(§4) ARSA and ARSB assay protocols
(§5) Compounds were screened in a 96-well black plate (Sterilin) using 4-MUS as a substrate, using 50 μL reaction mixture containing 40 ng of the commercially available enzymes (ARSA or ARSB from R & D Systems), 50 mM HEPES (pH = 4.5), 10 mM CaCl2, 1 mM test compound (dissolved in DMSO; final concentration of DMSO in reaction = 2%), and H2O (45 μL). The assay mixture was incubated for 1 h at 37 °C, followed by addition of 5 μL of 4-MUS (Km = 1.6 mM for ARSA and 612 μM for ARSB), and incubation for a further 1 h at 37 °C. The reaction was stopped with 100 μL of 1 M Tris (pH = 10.5) and read at 460 nm following excitation at 355 nm in FLUOstar Omega plate reader (BMG Labtech) using Omega data analysis software.

aryl sulfatase B (ARSB) = target: T3, aryl sulfatase B (ARSB) (Homo sapiens, UniProt P15848); test: ARSB inhibition assay with 4-MUS substrate; details: for inhibition at 1000 µM: 1 mM compound, 4-MUS substrate, means of two or more determinations, read-out: ARSB% inh @ 1 mM; for IC50: non-linear regression, 7 inhibitor concentrations in duplicate, mean ± SEM
T3 construct: purchased R & D Systems
T3 sequence (P15848 37-533, species assumed): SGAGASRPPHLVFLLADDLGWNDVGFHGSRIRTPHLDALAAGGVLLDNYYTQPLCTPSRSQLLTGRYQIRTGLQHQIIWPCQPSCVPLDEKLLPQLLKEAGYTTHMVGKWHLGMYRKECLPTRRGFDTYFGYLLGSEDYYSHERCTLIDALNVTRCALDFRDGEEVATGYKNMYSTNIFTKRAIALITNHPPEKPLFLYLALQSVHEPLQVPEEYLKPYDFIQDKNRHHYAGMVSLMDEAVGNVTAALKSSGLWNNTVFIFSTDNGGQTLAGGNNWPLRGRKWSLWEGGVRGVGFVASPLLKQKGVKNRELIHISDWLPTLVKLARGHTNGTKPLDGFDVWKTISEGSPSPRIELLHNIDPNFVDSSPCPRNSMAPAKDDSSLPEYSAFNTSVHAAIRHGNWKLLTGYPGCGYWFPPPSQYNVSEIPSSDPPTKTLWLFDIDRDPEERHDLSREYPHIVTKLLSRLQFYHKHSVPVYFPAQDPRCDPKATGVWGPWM
Description: as §1, §2, §3, §4, §5

[1] = non-linear regression, 7 inhibitor concentrations in duplicate, mean ± SEM

T1 sequence (Q8IWU5 25-870): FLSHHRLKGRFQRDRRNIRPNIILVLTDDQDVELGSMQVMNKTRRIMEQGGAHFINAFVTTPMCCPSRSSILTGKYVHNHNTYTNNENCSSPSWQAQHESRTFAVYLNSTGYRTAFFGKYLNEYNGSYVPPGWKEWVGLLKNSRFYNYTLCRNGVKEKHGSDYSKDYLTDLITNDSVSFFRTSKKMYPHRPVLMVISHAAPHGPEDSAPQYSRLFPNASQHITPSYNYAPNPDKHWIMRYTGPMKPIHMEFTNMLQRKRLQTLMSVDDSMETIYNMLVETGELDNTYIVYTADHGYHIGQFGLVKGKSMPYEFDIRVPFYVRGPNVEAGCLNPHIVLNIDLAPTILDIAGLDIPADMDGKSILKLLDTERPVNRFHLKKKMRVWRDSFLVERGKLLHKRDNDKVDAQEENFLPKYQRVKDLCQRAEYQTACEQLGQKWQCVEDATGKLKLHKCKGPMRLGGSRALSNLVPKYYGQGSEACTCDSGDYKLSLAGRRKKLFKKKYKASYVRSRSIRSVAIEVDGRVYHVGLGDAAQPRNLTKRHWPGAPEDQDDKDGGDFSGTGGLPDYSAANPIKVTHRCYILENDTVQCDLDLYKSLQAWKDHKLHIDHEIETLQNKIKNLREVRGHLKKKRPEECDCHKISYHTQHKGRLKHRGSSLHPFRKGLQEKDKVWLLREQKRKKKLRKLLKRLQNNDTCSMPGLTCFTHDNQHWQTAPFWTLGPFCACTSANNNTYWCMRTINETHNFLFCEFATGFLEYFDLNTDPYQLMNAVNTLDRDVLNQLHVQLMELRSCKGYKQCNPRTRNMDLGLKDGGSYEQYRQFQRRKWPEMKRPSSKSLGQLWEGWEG

Row | Compound | inhibition at 1000 µM (Sulf-2) [%] | inhibition at 1000 µM (aryl sulfatase A (ARSA)) [%] | inhibition at 1000 µM (aryl sulfatase B (ARSB)) [%] | IC50 (Sulf-2) [µM] | IC50 (aryl sulfatase A (ARSA); [1]) [µM] | IC50 (aryl sulfatase B (ARSB)) [µM] | ARSA IC50 (aryl sulfatase A (ARSA); [1])
1 | NS(=O)(=O)Oc1cccc(-c2ccccc2NS(=O)(=O)O)c1 [Compound 62] | 37 | 26 | 0 | – | – | – | –
2 | Nc1ccccc1Oc1cccc(OS(N)(=O)=O)c1 [Compound 25] | 28 | 75 | 17 | – | – | – | –
3 | NS(=O)(=O)Oc1cccc(Oc2ccccc2C(=O)O)c1 [Compound 73] | 10 | 44 | 0 | – | – | – | –
4 | NS(=O)(=O)Oc1cccc(Oc2ccccc2NS(=O)(=O)O)c1 [Compound 63] | 56 | 54 | 93 | – | – | – | –
5 | NS(=O)(=O)Oc1cccc(-c2ccccc2C(=O)O)c1 [Compound 15] | 31 | 98 | 0 | – | – | – | –
6 | O=S(=O)(Nc1cccc(-c2ccccc2)c1)OCC(F)(F)F [Compound 82] | 5 | 78 | 92 | – | – | – | –
7 | NS(=O)(=O)Oc1cccc(Oc2cccc(NS(=O)(=O)O)c2)c1 [Compound 56] | 58 | 95 | 85 | – | – | – | –
8 | NS(=O)(=O)Oc1cccc(Oc2ccc(C(=O)O)cc2)c1 [Compound 75] | 23 | 33 | 0 | – | – | – | –

Now from value to molecule:

Row | inhibition at 1000 µM (Sulf-2) [%] | inhibition at 1000 µM (aryl sulfatase A (ARSA)) [%] | inhibition at 1000 µM (aryl sulfatase B (ARSB)) [%] | IC50 (Sulf-2) [µM] | IC50 (aryl sulfatase A (ARSA); [1]) [µM] | IC50 (aryl sulfatase B (ARSB)) [µM] | ARSA IC50 (aryl sulfatase A (ARSA); [1]) | Compound
9 | 31 | 0 | 0 | – | – | – | – | NS(=O)(=O)Oc1cccc(-c2cccc(NS(=O)(=O)O)c2)c1 [Compound 54]
10 | 3 | 0 | 0 | – | – | – | – | CC(=O)Nc1ccc(-c2cccc(OS(N)(=O)=O)c2)cc1 [Compound 36]
11 | 99 | 92 | 67 | 167 ± 5 | 55 ± 11 | 130 ± 6 | – | NS(=O)(=O)Oc1cccc(-c2cccc(NS(=O)(=O)OCC(Cl)(Cl)Cl)c2)c1 [Compound 50]
12 | 20 | 86 | 0 | – | – | – | – | COC(=O)c1ccccc1-c1cccc(OS(N)(=O)=O)c1 [Compound 8]
13 | 13 | 34 | 77 | – | – | – | – | NS(=O)(=O)Oc1cccc(Oc2ccc(NS(=O)(=O)O)cc2)c1 [Compound 57]
14 | 4 | 0 | 0 | – | – | – | – | NS(=O)(=O)Oc1cccc(-c2ccc(NS(=O)(=O)O)cc2)c1 [Compound 55]
15 | 38 | 14 | 65 | – | – | – | – | NS(=O)(=O)Oc1cccc(-c2ccccc2)c1 [Compound 76]
16 | 96 | 99 | 68 | 566 ± 28 | 91 ± 4 | 101 ± 8 | – | NS(=O)(=O)Oc1cccc(-c2ccc(NS(=O)(=O)OCC(Cl)(Cl)Cl)cc2)c1 [Compound 51]
17 | 100 | 0 | 61 | 254 ± 3 | – | 30 ± 11 | No inhibition | O=S(=O)(Nc1cccc(-c2ccccc2)c1)OCC(Cl)(Cl)Cl [Compound 79]
